# Assay results reported in PubChem BioAssay (NCI).
# Where “and” joins values, the source holds several entries; their conditions need not be identical. Identical values can stand only once.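 Test compounds were applied to cells in 96-well plates for 48 hours at 5 doses. GI50 is the concentration that inhibits growth by half. TGI marks complete inhibition of growth.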
# Test system: COLO 205 colon
# Assay: DTP human tumour cell line panel, 48 h
SMILES,TGI,GI50
C[C@@]1(O)CC[C@]2(C)C3CCCC3[C@H]12 (some centres not stated),> 100 µM,
CC[C@@H](c1ccc(O)c(O)c1)[C@@H](CC)c1ccc(O)c(O)c1,4.11 µM,1.97 µM
O=C1OCC2=C1C(c1cccc(Br)c1)c1cc3c(cc1N2CCO)OCCO3 (configuration not stated),0.371 µM,0.079 µM
COc1cc(-c2nn(-c3cccc(NC(=O)c4ccccc4)c3)cc2-c2ccncc2)ccc1Cl,3.23 µM,0.522 µM
Cc1cc(Nc2ccc(C)c(Cl)c2)n2nc(C(F)(F)F)nc2n1,70.1 µM,23.5 µM
COc1ccc(Cn2c(Br)c3c(c2Br)-c2nc(N)sc2CC3)cc1,4.42 µM,2.2 µM
CC(=O)[O-].CC(=O)[O-].O=C(N/N=C/c1cc(Cl)cc(Cl)c1O)c1ccncc1.[Cu+2],> 100 µM,
O=C1CSC(=S)N1/N=C/c1ccc(Cl)c([N+](=O)[O-])c1,> 100 µM,
O=C(Nc1nc(=S)[nH][nH]1)C(=O)C(C(=O)c1ccc2ccccc2c1)C1OC(=O)c2ccccc21 (configuration not stated),34.5 µM,
CCCCCCCCCCSC(=N)N (tested in a mixture with another compound),3.78 µM,1.86 µM
CCOc1ccc(NC2=CC(=O)C(=O)c3ccccc32)cc1,10.9 µM,
Cc1nc(-c2nc(C)c(C(=O)NNC(=O)C[n+]3ccccc3)s2)sc1C(=O)NNC(=O)C[n+]1ccccc1,> 100 µM,
O=C1c2ccccc2C(=O)c2c(/C=C\N3CCCCC3)ccnc21,6.06 µM,
C=C1C[C@H](O)[C@H](Br)C(C)(C)[C@@]12CCC(C)=C(Cl)C2,0.51 µM,0.157 µM
Cc1ccc(S(=O)(=O)N2CCC2c2ccccc2)cc1 (configuration not stated),> 100 µM,
c1ccc(-c2n(Cc3ccc4ccccc4n3)cc[n+]2Cc2ccc3ccccc3c2)cc1,2.26 µM,0.752 µM
O=C(Nc1cccc(C(F)(F)F)c1)Nc1cccc(C(F)(F)F)c1,2.59 µM,0.985 µM
CC(C)(C)[Si](C)(C)OC1[C@@H](O[Si](C)(C)C(C)(C)C)[C@@H](CNC(=O)NC(=O)C(F)(F)F)O[C@H]1n1cnc2c(NC(=O)Nc3ccccc3)ncnc21 (some centres not stated),12.8 µM,6.03 µM
CCOC(=O)n1cc(C2=C(c3ccc(OC)c(OC)c3)COC2=O)c2ccccc21,0.94 µM,0.0522 µM
CC(=C(c1ccc(OCCN2CCCCC2)cc1)c1ccc(OCCN2CCCCC2)cc1)c1ccc(Cl)cc1,0.921 µM,0.46 µM
C=C(C)C(=O)O[C@@H]1C[C@@]2(C)O[C@@H]2C[C@H](O)/C(C)=C/[C@H]2OC(=O)C(=C)[C@@H]21,> 100 µM,
C=CC(=O)Nc1cc(Nc2nccc(-c3cn(C)c4ccccc34)n2)c(OC)cc1N(C)CCN(C)C,3.14 µM and 2.99 µM,1.62 µM and 1.43 µM
CC(=O)OC1(C)N=NC2(CCCCC2)O1 (configuration not stated),> 100 µM,
Cc1ccc(-c2nc(N3CCNCC3)c3oc(-c4ccc(C)cc4)nc3n2)cc1,4.11 µM,1.98 µM
[O-][Cl+3]([O-])([O-])[O-].[O]=[Ru]=[O].c1ccc(-c2ccccn2)nc1.c1ccc(-c2ccccn2)nc1,> 100 µM,> 100 µM
C=C1C(=O)O[C@H]2[C@H]1CC/C(CNC(=O)c1cc3ccccc3[nH]1)=C\CC[C@@]1(C)O[C@@H]21,2.6 µM,1.16 µM
Cc1cc2c(cc1C)[n+](=O)c(C(=O)c1ccccc1)c(C(F)F)n2[O-],35.5 µM,9.83 µM
COc1cc2c(cc1OC)C(Cl)C(c1ccc(F)cc1)=C2Cl (configuration not stated),31 µM,
CCOC(=O)C1Sc2ccccc2N=C1C (configuration not stated),> 100 µM,

# Test system: U251 CNS
# Assay: DTP human tumour cell line panel, 48 h
SMILES,TGI [µM],GI50 [µM]
C[C@@]1(O)CC[C@]2(C)C3CCCC3[C@H]12 (some centres not stated),> 100,
CC[C@@H](c1ccc(O)c(O)c1)[C@@H](CC)c1ccc(O)c(O)c1,37.8,15.8
O=C1OCC2=C1C(c1cccc(Br)c1)c1cc3c(cc1N2CCO)OCCO3 (configuration not stated),6.07,0.0596
COc1cc(-c2nn(-c3cccc(NC(=O)c4ccccc4)c3)cc2-c2ccncc2)ccc1Cl,24.4,0.592
Cc1cc(Nc2ccc(C)c(Cl)c2)n2nc(C(F)(F)F)nc2n1,> 100,23.5
COc1ccc(Cn2c(Br)c3c(c2Br)-c2nc(N)sc2CC3)cc1,19,5.15
